Reference: US6358885B1, “Substituted phenylheterocyclic herbicides” (Mississippi State University, priority 1992, dated 2002)

What was measured:
Experiment in all cases: Test G preemergence/postemergence greenhouse plant response rating 0 to 100
smooth crabgrass = type: in vivo, Digitaria ischaemum; settings: 0 to 100 scale
Excerpt: (§1) Seeds, rhizomes, or plant parts of alfalfa (Medicago ativa), annual bluegrass (Poa annua), bermudagrass (Cynodon dactylon), broadleaf signalgrass (Brachiaria plantaginea), common purslane (Portulaca oleracea), common ragweed (Ambrosia elatior), […] (Paspalum dilatatum), goosegrass (Eleusine indica), guineagrass (Panicum maximum), […] exaltata), johnsongrass (Sorghum halepense), large crabgrass (Digitaria sanguinalis), peanut (Arachis hypoagaea), pitted morningglory (Ipomoea lacunosa), purple nutsedge (Cyperus rotundus), sandbur (Cenchrus echinatus), smooth crabgrass (Digitaria ischaemum) and yellow nutsedge (Cyperus esculentus) were planted into greenhouse pots containing greenhouse planting medium. Each pot contained only one plant species. The test compound was dissolved in a non-phytotoxic solvent and applied preemergence and/or postemergence to the plants. Preemergence applications were made within one day of planting the seeds or plant parts. Postemergence applications were applied when the plants were in the two to four leaf stage (three to twenty cm). Test chemicals were dissolved in a non-phytotoxic solvent and applied preemergence and postemergence to the plants. Untreated control plants and treated plants were placed in the greenhouse and visually evaluated for injury at 13 to 21 days after herbicide application. […] A dash (-) response indicates no test result.

alfalfa = type: in vivo, Medicago ativa; settings: 0 to 100 scale
Excerpt: as §1

common ragweed = type: in vivo, Ambrosia elatior; settings: 0 to 100 scale
Excerpt: as §1

itchgrass = type: in vivo, Rottboellia exaltata; settings: 0 to 100 scale
Excerpt: as §1

yellow nutsedge = type: in vivo, Cyperus esculentus; settings: Rate 125 g/ha, 0 to 100 scale
Excerpt: as §1

common purslane = type: in vivo, Portulaca oleracea; settings: 0 to 100 scale
Excerpt: as §1

large crabgrass = type: in vivo, Digitaria sanguinalis; settings: 0 to 100 scale
Excerpt: as §1

annual bluegrass = type: in vivo, Poa annua; settings: 0 to 100 scale
Excerpt: as §1

johnsongrass = type: in vivo, Sorghum halepense; settings: 0 to 100 scale
Excerpt: as §1

broadleaf signalgrass = type: in vivo, Brachiaria plantaginea; settings: 0 to 100 scale
Excerpt: as §1

goosegrass = type: in vivo, Eleusine indica; settings: 0 to 100 scale
Excerpt: as §1

peanut = type: in vivo, Arachis hypoagaea; settings: 0 to 100 scale
Excerpt: as §1

bermudagrass = type: in vivo, Cynodon dactylon; settings: 0 to 100 scale
Excerpt: as §1

sandbur = type: in vivo, Cenchrus echinatus; settings: 0 to 100 scale
Excerpt: as §1

guineagrass = type: in vivo, Panicum maximum; settings: 0 to 100 scale
Excerpt: as §1

purple nutsedge = type: in vivo, Cyperus rotundus; settings: Rate 125 g/ha, 0 to 100 scale
Excerpt: as §1

dallisgrass = type: in vivo, Paspalum dilatatum; settings: 0 to 100 scale
Excerpt: as §1

pitted morningglory = type: in vivo, Ipomoea lacunosa; settings: 0 to 100 scale
Excerpt: as §1

CCS(=O)(=O)Oc1cc(-c2nn3c(c2Cl)CCCC3)c(F)cc1Cl [Compound 25]
Plant response rating, Smooth Crabgras (smooth crabgrass; POSTEMERGENCE, Rate 125 g/ha): 0 | Plant response rating, Smooth Crabgras (smooth crabgrass; POSTEMERGENCE, Rate 250 g/ha): 0 | Plant response rating, Smooth Crabgras (smooth crabgrass; PREEMERGENCE, Rate 125 g/ha): 0 | Plant response rating, Smooth Crabgras (smooth crabgrass; PREEMERGENCE, Rate 250 g/ha): 0 | Plant response rating, Alfalfa Var. (alfalfa; POSTEMERGENCE, Rate 125 g/ha): 0 | Plant response rating, Alfalfa Var. (alfalfa; POSTEMERGENCE, Rate 250 g/ha): 0 | Plant response rating, Alfalfa Var. (alfalfa; PREEMERGENCE, Rate 125 g/ha): 0 | Plant response rating, Alfalfa Var. (alfalfa; PREEMERGENCE, Rate 250 g/ha): 0 | Plant response rating, Cmn Ragweed (common ragweed; POSTEMERGENCE, Rate 125 g/ha): 50 | Plant response rating, Cmn Ragweed (common ragweed; POSTEMERGENCE, Rate 250 g/ha): 0 | Plant response rating, Cmn Ragweed (common ragweed; PREEMERGENCE, Rate 125 g/ha): 0 | Plant response rating, Cmn Ragweed (common ragweed; PREEMERGENCE, Rate 250 g/ha): 0 | Plant response rating, Itchgrass (itchgrass; POSTEMERGENCE, Rate 125 g/ha): 0 | Plant response rating, Itchgrass (itchgrass; POSTEMERGENCE, Rate 250 g/ha): 0 | Plant response rating, Itchgrass (itchgrass; PREEMERGENCE, Rate 125 g/ha): 0 | Plant response rating, Itchgrass (itchgrass; PREEMERGENCE, Rate 250 g/ha): 0 | Plant response rating, Yellow Nutsedge (yellow nutsedge; POSTEMERGENCE): 0 | Plant response rating, Yellow Nutsedge (yellow nutsedge; PREEMERGENCE): 0 | Plant response rating, Cmn Purslane (common purslane; POSTEMERGENCE, Rate 125 g/ha): 100 | Plant response rating, Cmn Purslane (common purslane; POSTEMERGENCE, Rate 250 g/ha): 60 | Plant response rating, Cmn Purslane (common purslane; PREEMERGENCE, Rate 125 g/ha): 0 | Plant response rating, Cmn Purslane (common purslane; PREEMERGENCE, Rate 250 g/ha): 0 | Plant response rating, Large Crabgrass (large crabgrass; POSTEMERGENCE, Rate 125 g/ha): 0 | Plant response rating, Large Crabgrass (large crabgrass; POSTEMERGENCE, Rate 250 g/ha): 0 | Plant response rating, Large Crabgrass (large crabgrass; PREEMERGENCE, Rate 125 g/ha): 0 | Plant response rating, Large Crabgrass (large crabgrass; PREEMERGENCE, Rate 250 g/ha): 0 | Plant response rating, Ann Bluegrass (annual bluegrass; POSTEMERGENCE, Rate 125 g/ha): 0 | Plant response rating, Ann Bluegrass (annual bluegrass; POSTEMERGENCE, Rate 250 g/ha): 0 | Plant response rating, Ann Bluegrass (annual bluegrass; PREEMERGENCE, Rate 125 g/ha): 0 | Plant response rating, Ann Bluegrass (annual bluegrass; PREEMERGENCE, Rate 250 g/ha): 0 | Plant response rating, Johnsongrass (johnsongrass; POSTEMERGENCE, Rate 125 g/ha): 0 | Plant response rating, Johnsongrass (johnsongrass; POSTEMERGENCE, Rate 250 g/ha): 0 | Plant response rating, Johnsongrass (johnsongrass; PREEMERGENCE, Rate 125 g/ha): 0 | Plant response rating, Johnsongrass (johnsongrass; PREEMERGENCE, Rate 250 g/ha): 0 | Plant response rating, Brdlf Sgnlgrass (broadleaf signalgrass; POSTEMERGENCE, Rate 125 g/ha): 0 | Plant response rating, Brdlf Sgnlgrass (broadleaf signalgrass; POSTEMERGENCE, Rate 250 g/ha): 0 | Plant response rating, Brdlf Sgnlgrass (broadleaf signalgrass; PREEMERGENCE, Rate 125 g/ha): 0 | Plant response rating, Brdlf Sgnlgrass (broadleaf signalgrass; PREEMERGENCE, Rate 250 g/ha): 0 | Plant response rating, Goosegrass (goosegrass; POSTEMERGENCE, Rate 125 g/ha): 0 | Plant response rating, Goosegrass (goosegrass; POSTEMERGENCE, Rate 250 g/ha): 0 | Plant response rating, Goosegrass (goosegrass; PREEMERGENCE, Rate 125 g/ha): 0 | Plant response rating, Goosegrass (goosegrass; PREEMERGENCE, Rate 250 g/ha): 0 | Plant response rating, Peanuts (peanut; POSTEMERGENCE, Rate 125 g/ha): 0 | Plant response rating, Peanuts (peanut; POSTEMERGENCE, Rate 250 g/ha): 0 | Plant response rating, Peanuts (peanut; PREEMERGENCE, Rate 125 g/ha): 0 | Plant response rating, Peanuts (peanut; PREEMERGENCE, Rate 250 g/ha): 0 | Plant response rating, Bermudagrass (bermudagrass; POSTEMERGENCE, Rate 125 g/ha): 0 | Plant response rating, Bermudagrass (bermudagrass; POSTEMERGENCE, Rate 250 g/ha): 0 | Plant response rating, Bermudagrass (bermudagrass; PREEMERGENCE, Rate 125 g/ha): 0 | Plant response rating, Bermudagrass (bermudagrass; PREEMERGENCE, Rate 250 g/ha): 0 | Plant response rating, S. Sandbur (sandbur; POSTEMERGENCE, Rate 125 g/ha): 0 | Plant response rating, S. Sandbur (sandbur; POSTEMERGENCE, Rate 250 g/ha): 0 | Plant response rating, S. Sandbur (sandbur; PREEMERGENCE, Rate 125 g/ha): 0 | Plant response rating, S. Sandbur (sandbur; PREEMERGENCE, Rate 250 g/ha): 0 | Plant response rating, Guineagrass (guineagrass; POSTEMERGENCE, Rate 125 g/ha): 0 | Plant response rating, Guineagrass (guineagrass; POSTEMERGENCE, Rate 250 g/ha): 0 | Plant response rating, Guineagrass (guineagrass; PREEMERGENCE, Rate 125 g/ha): 0 | Plant response rating, Guineagrass (guineagrass; PREEMERGENCE, Rate 250 g/ha): 0 | Plant response rating, Purple Nutsedge (purple nutsedge; POSTEMERGENCE): 0 | Plant response rating, Purple Nutsedge (purple nutsedge; PREEMERGENCE): 0 | Plant response rating, Dallisgrass (dallisgrass; POSTEMERGENCE, Rate 125 g/ha): 0 | Plant response rating, Dallisgrass (dallisgrass; POSTEMERGENCE, Rate 250 g/ha): 0 | Plant response rating, Dallisgrass (dallisgrass; PREEMERGENCE, Rate 125 g/ha): 0 | Plant response rating, Dallisgrass (dallisgrass; PREEMERGENCE, Rate 250 g/ha): 0 | Plant response rating, Pit Morninglory (pitted morningglory; POSTEMERGENCE, Rate 125 g/ha): 0 | Plant response rating, Pit Morninglory (pitted morningglory; POSTEMERGENCE, Rate 250 g/ha): 0 | Plant response rating, Pit Morninglory (pitted morningglory; PREEMERGENCE, Rate 125 g/ha): 0 | Plant response rating, Pit Morninglory (pitted morningglory; PREEMERGENCE, Rate 250 g/ha): 0
